From publication PMC7000209, “Novel small molecule modulators of quorum sensing in avian pathogenic Escherichia coli (APEC)” (Virulence, 2018)

Key:
AI-2 activity of APEC O2 = assay: AI-2 bioluminescence indicator assay, APEC O2; type: cell-based, avian pathogenic E. coli (APEC) O2; conditions: Escherichia coli, read-out: % Inhibtion of AI-2 activity
Description: (§1) Overnight culture of APEC O78 prepared in LB broth was adjusted to an optical density (OD600) of 0.05 (7 × 10^7 CFU/mL) in fresh LB broth. One hundred micro-liters of the culture was transferred to a 96-well plate and 1µL (100 μM final concentration) of the compound was added to each well using a pin tool. Chloramphenicol (40 μg/mL) or kanamycin (30 μg/mL) and 1μL of 100% DMSO were included as controls in each plate. Plates were incubated at 37 °C for 10 h with shaking in a Sunrise^TM Tecan plate reader (Tecan Group Ltd. San Jose, CA, USA) and the growth was kinetically monitored every 30 min by measuring the OD at 600 nm.
(§2) The AI-2 bioluminescence assay was performed as described previously. Briefly, APEC O78 cultures grown in the presence of SMs (see above) were centrifuged at 5000 × g for 10 min, and cell-free culture supernatants were prepared by using a 0.22 µm filter 96 well plate (Millipore). The bioluminescence reporter V. harveyi BB170 (AI-1^+ and AI-2^-) was grown overnight in AB medium at 30 °C aerobically with shaking. The overnight culture was diluted to 1:5000 in fresh AB medium and incubated at 30 °C for 3 h. Following incubation, 180 μL of the V. harveyi BB170 culture was distributed into each well of a 96-well plate and mixed with 20 µL of the cell free culture supernatant, the plate was then incubated at 30 °C for 2.5 h in the dark and the bioluminescence was measured using in vivo imaging system (IVIS Lumina Series III, PerkinElmer, USA). […] Cell-free culture supernatants collected from overnight cultures of V. harveyi BB120 (AI-1^+andAI-2^+) and E. coli DH5α (a strain lacks AI-2) were used as controls. Bioluminescence of SMs treated culture supernatants were compared to DMSO treated control. The Z-score was calculated to evaluate the quality of the bioluminescence screening. Four independent experiments were conducted for the 69 compounds that inhibited ≥ 75% of the AI-2 mediated bioluminescence and the average inhibition percentage was calculated.
(§3) The selected compounds were also tested for inhibition of AI-2 production in other APEC serotypes such as O1, O2, O8, O15, O18, O35, O109, and O115 that are commonly implicated in colibacillosis using the same procedure described above.

[1] = system: AI-2 activity of APEC O78; assay: AI-2 bioluminescence indicator assay (V. harveyi BB170), APEC O78 supernatant; type: cell-based, avian pathogenic E. coli (APEC) O78; conditions: Escherichia coli, read-out: % Inhibtion of AI-2 activity
Description: as §1, §2

[2] = system: APEC O78 biofilm formation; assay: Biofilm assay (crystal violet); type: cell-based, avian pathogenic E. coli (APEC) O78; conditions: 48 h; for inhibition at 100 µM: Escherichia coli, crystal violet OD550 vs DMSO control, read-out: reduction of APEC O78 biofilm formation
Description: Effect of the selected AI-2 inhibitors on biofilm formation was assessed using the crystal violet (CV) assay. Briefly, APEC O78 was grown in LB broth in the presence of 100 µM of each compound in a 96-well plate at 37 °C for 10 h. The culture was then diluted 1:100 in fresh LB broth. The biofilm assay was performed in a 96-well plate containing 150 µL of the diluted culture and 100 µM of each compound. The plate was then incubated aerobically without shaking at 37 °C for 48 h, washed twice with PBS to remove the non-adherent cells and stained with 200 µL of 0.1% CV in water at room temperature for 10 min. The plate was washed with PBS and biofilm was quantified by measuring the absorbance at 550 nm after solubilizing the CV in 200 μL of 30% acetic acid in water for 15 min.

[3] = system: QS-regulated and virulence factors genes of APEC O78; assay: qRT-PCR of QS-regulated and virulence factor genes; type: cell-based, avian pathogenic E. coli (APEC) O78; conditions: APEC O78, 100 µM, 10 h, ∆∆Ct vs DMSO
Description: The effect of the selected AI-2 inhibitors on the expression of QS-regulated and virulence factors genes of APEC was determined using qRT-PCR. APEC O78 was grown in the presence of 100 µM of each compound in a 96-well plate at 37 °C for 10 h. APEC O78 culture treated with 1µL of 100% DMSO was used as control. Total RNA was extracted from duplicate wells for each compound (200 µL) using a miRNeasy Mini Kit (Qiagen). RNA quality and quantity was determined by nanodrop 2000 C spectrophotometer (Thermo scientific). Traces of DNA were removed using Genomic DNA removal mix (Qiagen). Approximately, 5 μg of purified RNA was used to synthesize cDNA using the Qiagen RT^2 First Strand Kit (Qiagen). The qRT-PCR was performed using SensiMix^TM SYBR® Hi-ROX qPCR Master Mix (Bioline) according to manufacturer instructions in a realplex^2 mastercycler (Eppendorf) with 55 °C annealing temperature. Gene-specific primers were designed using PrimerQuest Tool and obtained from integrated DNA technologies (IDT). The data were normalized to the house-keeping gene, glyceraldehyde-3-phosphate dehydrogenase (GAPDH). The relative fold change was calculated using the ∆∆Ct method. Three independent experiments were conducted.

Caco-2 cells = assay: Lactate dehydrogenase (LDH) cytotoxicity assay, Caco-2; type: cell-based, human; conditions: 100 µM, 24 h
Description: The selected 10 AI-2 inhibitors were evaluated for their toxicity to Caco-2 (ATCC® HTB-37™) using LDH assay. Briefly, Caco-2 cells (1.4 × 10^5 cells/well) were grown in a 96-well plate in minimal essential medium (MEM) supplemented with 20% fetal bovine serum (FBS; Gibco), 1% non-essential amino acid (NEAA, Invitrogen Life Technologies) and 1mM sodium pyruvate, at 37 °C in a humidified 5% CO2 incubator for 48 h until a complete monolayer was formed. For LDH assay, cells were washed twice with media containing no FBS/no antibiotics and incubated with 150 µL of fresh media containing 100 μM of each compound at 37 °C for 24 h in a humidified 5% CO2 incubator. Fifty microliters of supernatant was analyzed using LDH Cytotoxicity Assay Kit (Thermo Scientific).

AI-2 activity of O35 = assay: AI-2 bioluminescence indicator assay, APEC O35; type: cell-based, avian pathogenic E. coli (APEC) O35; conditions: Escherichia coli, read-out: % Inhibtion of AI-2 activity, serotype O35, bioluminescence vs DMSO treated control
Description: as §1, §2, §3

AI-2 activity of O115 = assay: AI-2 bioluminescence indicator assay, APEC O115; type: cell-based, avian pathogenic E. coli (APEC) O115; conditions: Escherichia coli, read-out: % Inhibtion of AI-2 activity, serotype O115, bioluminescence vs DMSO treated control
Description: as §1, §2, §3

[4] = system: AI-2 activity of APEC O78; assay: AI-2 bioluminescence indicator assay (V. harveyi BB170), APEC O78 supernatant; type: cell-based, avian pathogenic E. coli (APEC) O78; conditions: Escherichia coli, read-out: AI-2-associated bioluminescence inhibition

SMILES | inhibition at 100 µM (AI-2 activity of APEC O2) | inhibition at 100 µM [1] | inhibition at 100 µM [2] | expression of cheW [3] | expression of csrA [3] | expression of fliP [3] | expression of fpr [3] | expression of hha [3] | expression of murD [3] | cytotoxicity (LDH release) (Caco-2 cells) | inhibition at 100 µM (AI-2 activity of O35) | inhibition at 100 µM (AI-2 activity of O115) | expression of ugpC [3] | inhibition at 50 µM [4] | expression of iss [3] | also measured
O=[N+]([O-])c1cccc(S(=O)(=O)Nc2ccc(Br)cc2)c1 [C6, N-(4-bromophenyl)-3-nit robenzenesulfonamide] | 93% | 92% | 63 to 66% | down-regulated | down-regulated | down-regulated | down-regulated | down-regulated | down-regulated | 27% | – | – | – | – | – | –
NC(=O)c1ccccc1Nc1cccc(C(F)(F)F)c1 [C3, 2-{[3-(trifluoromethyl)phenyl]amino}benzamide] | 54% | 78% | 63 to 66% | – | – | – | down-regulated | – | – | – | 37% | 35% | – | – | – | –
Cc1ccc(CN2CCN(CCCc3ccccc3)CC2)cc1 [C5, 1-(4-methylbenzyl)-4-(3-phenylpropyl)piperazine] | 89% | 83% | 63 to 66% | – | – | down-regulated | down-regulated | down-regulated | – | – | 68% | 63% | – | – | – | expression of wzb [3]: down-regulated
CCc1ccccc1Nc1nc(-c2c(C)nc3ccccn23)cs1 [C8, N-(2-ethylphenyl)-4-(2-methylimidazo[1,2-a]pyridin-3-yl)-1,3-thiazol-2-amine] | 94% | 98% | 52 to 58% | – | – | down-regulated | – | – | – | 2% | 57% | 44% | down-regulated | – | – | –
Cc1ccccc1N1CCN(C2CCCN(C(=O)c3ccc(F)c(Cl)c3)C2)CC1 (stereo not shown) [C2, 1-[1-(3-chloro-4-fluorobenzoyl)-3-piperidinyl]-4-(2-methylphenyl)piperazine] | 96% | 92% | 52 to 58% | – | – | – | – | down-regulated | – | – | 55% | 52% | down-regulated | – | – | –
CS/C(N)=N/N=C/c1cc(C)ccc1O [C4, methyl N'-(2-hydroxy-5-methylbenzylidene)h ydrazonothiocarbamate] | 76% | 75% | 63 to 66% | down-regulated | down-regulated | – | – | – | – | 12% | 60% | 58% | – | – | – | expression of iucD [3]: down-regulated; expression of luxS [3]: did not; expression of pfs [3]: up-regulated
O=C(CCN1CCN(c2ccccc2F)CC1)Nc1ccc(Br)cc1 [C7, N-(4-bromophenyl)-3-[4-(2-fluorophenyl)-1-piperazinyl]propanamide] | 83% | 94% | 63 to 66% | – | – | – | – | – | – | – | 62% | 45% | – | 25% | – | expression of nlpC [3]: up-regulated
COCCN1CCC(CN(Cc2ccncc2)Cc2ccccc2Cl)CC1 [C1, (2-chlorobenzyl){[1-(2-methoxyethyl)-4-piperidinyl]methyl}(4-pyridinylmethyl)amine] | 94% | 84% | – | – | – | – | – | down-regulated | down-regulated | – | 48% | 64% | down-regulated | – | down-regulated | effect on APEC O78 biofilm formation (in words) ([2]; 100 µM, vs DMSO treated control): no effect; expression of thiH [3]: down-regulated
OCCC1CN(C2CCN(c3ccccc3)CC2)CCN1CCCc1ccccc1 (stereo not shown) [C10, 2-[4-(1-phenyl-4-piperidinyl)-1-(3-phenylpropyl)-2-piperazinyl]ethanol] | 89% | 84% | 52 to 58% | – | – | down-regulated | – | – | – | 27% | 47% | ≥ 75% | – | 25% | down-regulated | expression of frwC [3]: down-regulated
Fc1ccc(CN2CCCN(Cc3nc(-c4ccc(C(F)(F)F)cc4)no3)CC2)cc1 [C9, 1-(4-fluorobenzyl)-4-({3-[4-(trifluoromethyl)phenyl]-1,2,4-oxadiazol-5-yl}methyl)-1,4-diazepane] | 51% | 79% | 52 to 58% | down-regulated | down-regulated | – | – | – | down-regulated | – | 36% | 44% | down-regulated | 25% | up-regulated | expression of bolA [3]: down-regulated; expression of nlpC [3]: up-regulated
